Experimental findings from PubChem BioAssay AID434942 (Johns Hopkins Ion Channel Center, 2010) are described below.

The assay concerns the target Short transient receptor potential channel 4 (Mus musculus) (UniProt Q9QUQ5). Description: mouse TRPC4 channel inhibitors, dose response, cell-based, HEK293 TRPC4/mu-opioid, Fluo-4 calcium (AID 434942).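 Note: potency of inhibitors blocking the DAMGO-evoked TRPC4 calcium rise.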 The conditions noted are these: HEK293 TRPC4/mu-opioid cells, DAMGO-evoked Fluo-4 calcium ratio.

Sequence of Short transient receptor potential channel 4 (Mus musculus) (Q9QUQ5 whole entry, looked up): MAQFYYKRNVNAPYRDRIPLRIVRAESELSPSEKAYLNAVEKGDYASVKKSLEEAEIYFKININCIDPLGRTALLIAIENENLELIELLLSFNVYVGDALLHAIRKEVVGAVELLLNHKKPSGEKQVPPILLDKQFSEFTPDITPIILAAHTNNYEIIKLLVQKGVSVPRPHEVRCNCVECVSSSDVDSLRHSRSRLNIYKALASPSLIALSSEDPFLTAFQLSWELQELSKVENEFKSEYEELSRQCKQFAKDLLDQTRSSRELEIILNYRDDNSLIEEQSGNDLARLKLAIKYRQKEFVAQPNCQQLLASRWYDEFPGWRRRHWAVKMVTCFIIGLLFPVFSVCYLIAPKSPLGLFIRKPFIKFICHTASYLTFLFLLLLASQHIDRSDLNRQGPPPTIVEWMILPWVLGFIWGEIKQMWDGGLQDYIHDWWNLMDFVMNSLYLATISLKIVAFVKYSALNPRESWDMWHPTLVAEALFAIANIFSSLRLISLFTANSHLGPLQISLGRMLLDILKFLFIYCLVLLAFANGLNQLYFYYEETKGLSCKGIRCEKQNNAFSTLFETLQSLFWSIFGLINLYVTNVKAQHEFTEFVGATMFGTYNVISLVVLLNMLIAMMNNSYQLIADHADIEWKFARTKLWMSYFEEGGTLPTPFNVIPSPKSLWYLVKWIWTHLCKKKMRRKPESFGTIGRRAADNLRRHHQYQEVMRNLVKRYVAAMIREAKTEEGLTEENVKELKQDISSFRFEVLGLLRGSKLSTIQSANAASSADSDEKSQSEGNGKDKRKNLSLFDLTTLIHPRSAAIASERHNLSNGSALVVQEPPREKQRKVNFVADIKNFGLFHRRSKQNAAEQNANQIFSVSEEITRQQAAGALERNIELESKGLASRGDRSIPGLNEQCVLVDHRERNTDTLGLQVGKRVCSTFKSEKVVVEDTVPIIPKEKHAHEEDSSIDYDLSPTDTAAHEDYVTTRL

One may read the IC50 as the point on the concentration scale where inhibition reaches its midpoint. Regarding `CC1Cc2ccccc2N1C(=O)CSc1nc2c(c(=O)n(C)c(=O)n2C)n1Cc1ccccc1` (configuration not stated), the concentration for half-maximal inhibition (IC50) was 2110 nM.
Consider `CC(=O)Nc1ccc(C2(c3ccc(NC(C)=O)cc3)C(=O)Nc3ccccc32)cc1`, for which the IC50 is 1500 nM.
